Source: patent EP0334119A1, “Compounds for inhibiting the biosynthesis of lipoxygenase-derived metabolites of arachidonic acid” (BOEHRINGER INGELHEIM PHARMACEUTICALS INC., priority 1988, dated 1989)
Like-named read-outs stand apart in the source and are kept apart here.

Legend:
5-lipoxygenase [1] = molecular target: T1, 5-lipoxygenase (Homo sapiens, UniProt P09917); assay: Inhibition of 5-lipoxygenase (5-HETE biosynthesis) in human polymorphonuclear leukocytes; type: cell-based; conditions: human PMN's, 5-HETE band vs control; test concentration 1 microM; read-out: Inhibition of 5-LO % at 1 M
T1 construct: Human PMN's (5 x 10⁶ cells/0.5 mL) in pH 7.2 phosphate buffer; endogenous in cells; host or cells: human polymorphonuclear leukocytes (PMN)
T1 sequence (P09917 1-674): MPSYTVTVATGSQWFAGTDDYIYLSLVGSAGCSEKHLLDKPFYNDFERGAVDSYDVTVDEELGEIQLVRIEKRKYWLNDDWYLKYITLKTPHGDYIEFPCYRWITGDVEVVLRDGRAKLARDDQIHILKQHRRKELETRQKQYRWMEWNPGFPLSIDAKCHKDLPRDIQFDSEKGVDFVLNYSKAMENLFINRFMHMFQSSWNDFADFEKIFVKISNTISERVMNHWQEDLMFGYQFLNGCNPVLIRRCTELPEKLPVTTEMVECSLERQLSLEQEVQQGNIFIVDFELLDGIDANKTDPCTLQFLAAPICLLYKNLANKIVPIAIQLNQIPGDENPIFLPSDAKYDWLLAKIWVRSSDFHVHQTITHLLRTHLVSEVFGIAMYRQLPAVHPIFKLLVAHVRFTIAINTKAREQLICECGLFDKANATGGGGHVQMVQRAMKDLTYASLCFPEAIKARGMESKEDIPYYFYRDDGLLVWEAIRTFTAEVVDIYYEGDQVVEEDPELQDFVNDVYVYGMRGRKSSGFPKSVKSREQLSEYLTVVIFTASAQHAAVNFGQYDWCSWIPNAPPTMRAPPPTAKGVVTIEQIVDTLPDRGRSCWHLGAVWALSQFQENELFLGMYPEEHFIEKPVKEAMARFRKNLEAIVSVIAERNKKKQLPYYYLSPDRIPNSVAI
Description: Inhibition of 5-Lipoxygenase in Human Polymorphonuclear Leukocytes (PMN's)
The inhibition of 5-lipoxygenase is measured by determining whether and to what extent test compounds inhibit the amount of 5-HETE biosynthesized by human PMN's. 5-HETE biosynthesis serves as a marker for arachidonic acid metabolism by 5-lipoxygenase.
Human PMN's (5 x 10⁶ cells/0.5 mL) in pH 7.2 phosphate buffer containing Ca²⁺ (0.6 mM) and Mg²⁺ (1.0 mM) were incubated with test compound for 15 minutes at 37°C with shaking. Calcium ionophore A23187 (0.25 mM, 0.01 mL) and [¹⁴C] arachidonic acid (0.10 microCi in 0.025 mL 0.01N NaOH) were added, and the mixture incubated another 2.5 minutes. The reaction was terminated by the addition of 0.025 mL of 1.0 N HCl. The mixture was then extracted with ethyl acetate-methylene chloride (2:3) supplemented with 12 microgram/mL cold arachidonic acid to reduce degradation of the metabolites. After concentrating the organic phase, the number of microlitres containing 5 x 10⁴ cpm was determined and that volume applied to a silica gel plate. The plate was developed in methylene-chloride-methanol-acetic acid-water (90:8:1:0.8), air dried, and counted on a Berthold linear TLC analyzer. The integrated area of the 5-HETE band was determined and compared with the control (no drug).
In cases where the IC₅₀ was determined, the result is shown in microM.

5-lipoxygenase [2] = assay: Inhibition of antigen-induced, SRS-A mediated bronchioconstriction in conscious guinea pigs; type: in vivo; conditions: i.p. in 5% Tween 80 suspension, 30mg/kg, 60 minutes before antigen challenge; % inhibition of the decrease in Cdyn
Description: Inhibition of Antigen-Induced, SRS-A Mediated Bronchioconstriction in Conscious Guinea Pigs
This model is used to measure the ability of a drug to inhibit 5-lipoxygenase in vivo. SRS-A (slow reacting substance of anaphylaxis - also referred to as leukotrienes C₄, D₄ and E₄) is released by cells in the sensitized guinea pig upon stimulation by antigen, resulting in bronchioconstriction and change in pulmonary function. The leukotrienes are biosynthesized from arachidonic acid by the enzyme 5-lipoxygenase. Therefore, an inhibitor of 5-lipoxygenase could reduce the production of SRS-A and attenuate the bronchioconstriction.
Male outbred Hartley strain albino guinea pigs (250-300 grams) were sensitized by i.p. injection of ovalbumin (3mg/kg) followed by an i.p. injection of Bordetella pertussis (about 5x10⁹ killed organisms) and studied 14 days later.
Sensitized guinea pigs (fasted for 18 hours) were anesthesized and a catheter-tip pressure transducer was inserted into the pleural space of each animal. The animals are pretreated (i.p.) with pyrilamine (10mg/kg) and indomethacin (10mg/kg) to antagonize the effects of histamine and inhibit cyclooxygenase respectively. Cyclooxygenase products and histamine are released endogenously along with SRS-A, upon antigen challenge. Test compound is also administered i.p., 60 minutes before antigen challenge.
The guinea pigs were placed in a "head out" plethysmograph and allowed to recover from anesthesia. Airflow into the respiratory system, pleural pressure and airflow signals were measured, and tidal volume, dynamic pulmonary compliance (Cdyn) and breathing frequency were calculated according to a published technique (E.G. Damen et al., Toxicol. Appl. Pharmacol., 1982, 64, 465). After baseline values for pulmonary function were obtained, the animals were challenged by aerosolized ovalbumin. The overall changes in pulmonary function parameters were determined by calculating the mean changes from baseline during the period 5 to 15 minutes following antigen challenge.
Drug efficacy was determined by comparing the mean of the percent decrease in Cdyn from baseline in drug treated animals (N=4-6) to control animals (N=10-12).

5-lipoxygenase [3] = assay: Inhibition of antigen-induced, late phase inflammatory cell infiltration in guinea pigs; type: in vivo; conditions: 60 minutes before antigen challenge, lung lavage four hours after challenge
Description: Inhibition of Antigen-Induced, Late Phase Inflammatory Cell Infiltration in Guinea Pigs
This model is used to measure the ability of a drug to inhibit 5-lipoxygenase in vivo. In addition to SRS-A, a chemotactic substance LTB₄ is also released by cells in the sensitized guinea pig lung upon stimulation by antigen. As a result there is a measurable influx of cells into the lung. Therefore, an inhibitor of 5-lipoxygenase could reduce the formation of LTB₄ and thereby reduce the cell influx into the lung.
Male outbred Hartley strain albino guinea pigs (250-300 grams) were sensitized to ovalbumin as in the procedure for inhibition of antigen-induced, SRS-A mediated bronchioconstriction in conscious guinea pigs.
Sensitized guinea pigs were fasted and pretreated with pyrilamine and indomethacin as in bronchioconstriction testing procedure. Test compounds, suspended in 1% acacia, were administered 60 minutes before antigen challenge. […] Whole lung lavage was performed with three 5 mL aliquots of normal saline buffered with sodium bicarbonate.
Total cell counts were performed on a Coulter Counter, and differential cell counts were performed. Compounds were evaluated for their ability to alter the antigen-induced total cell influx and, more specifically, neutrophil (PMN) influx.

[4] = test system: A23187-Induced LTB₄ Generation; assay: Ex vivo inhibition of A23187-induced LTB4 generation in squirrel monkey blood; set-up: species or system Squirrel Monkeys; conditions: Primates, 1 h, 60 min after dosing, vehicle per footnotes 2-4
Description: Ex Vivo Inhibition of A23187-Induced LTB₄ Generation in Squirrel Monkeys.
Incubation of squirrel monkey whole blood with calcium ionophore A23187 stimulates the production of LTB₄. This LTB₄ production can be inhibited by a lipoxygenase inhibitor in vitro by incubating the blood with the inhibitor prior to A23187 challenge. By dosing squirrel monkeys with a lipoxygenase inhibitor prior to withdrawal of a blood sample, one can determine the ability of the lipoxygenase inhibitor to be absorbed into the bloodstream by measuring the inhibition of A23187 induced LTB₄ production ex vivo.
Squirrel monkeys (400-650g) were fasted for 18 hours, anesthetized and dosed either orally or intraperitoneally with test compound. After the desired time period, blood was withdrawn from the femoral vein. The blood (0.5 mL) was heparinized, preincubated at 37°C for 5 minutes and stimulated with A23187 in DMSO to give a final concentration of 30 microM. The reaction was terminated with EGTA (final concentration 10 microM), and the blood centrifuged. Levels of LTB₄ in the plasma were then determined by radioimmunoassay.
The results shown in Table 4 illustrate the ability of a prodrug of type 2a or 2b to be absorbed after ip or po dosing compared to the parent compound 1a.

SMILES | inhibition at 1 µM (5-lipoxygenase [1]) [%] | % Inhibition of Bronchioconstriction (5-lipoxygenase [2]) [%] | further results
CCc1cc(C=Cc2cccs2)cc(OC)c1O [Compound 1e] | 85 | 51 | 
Cc1cc(C=Cc2ccsc2)cc(C)c1O [Compound 1o] | 84 | 26 | 
COc1cc(C=Cc2cccs2)cc(C)c1O [Compound 1d, 2-Methoxy-6-methyl-4-[2-(2-thienyl)ethenyl]phenol] | 65 | 41 | 
Cc1cc(C=Cc2cccnc2)cc(C)c1O [Compound 1x] | 62 | 39 | 
CCCc1cc(C=Cc2cccs2)cc(OC)c1O [Compound 1f] | 76 | 57 | % Inh. PMN (5-lipoxygenase [3]; 30 mg/kg ip): 54%; % Inh. Total Cells (5-lipoxygenase [3]; 30 mg/kg ip): 77%
Cc1cc(C=Cc2cccs2)cc(C)c1O [Compound 1a, 2,6-Dimethyl-4-[2-(2-thienyl)ethenyl]phenol] | 91 | 75 | % Inh. PMN (5-lipoxygenase [3]; 30 mg/kg ip): 95%; % Inh. Total Cells (5-lipoxygenase [3]; 30 mg/kg ip): 78%; % Inh. PMN (5-lipoxygenase [3]; 30 mg/kg po): 14%; % Inh. Total Cells (5-lipoxygenase [3]; 30 mg/kg po): 51%; inhibition at 30 mg/kg ([4]; 30 mg/kg ip, read-out: Percent Inh. Monkey 2): 12%; inhibition at 30 mg/kg ([4]; 30 mg/kg ip, read-out: Percent Inh. Monkey 3): 4%; inhibition at 30 mg/kg ([4]; 30 mg/kg ip, read-out: Percent Inh. Monkey #1): 47%; inhibition at 30 mg/kg ([4]; 30 mg/kg po, read-out: Percent Inh. Monkey 2): 0%; inhibition at 30 mg/kg ([4]; 30 mg/kg po, read-out: Percent Inh. Monkey 3): 0%; inhibition at 30 mg/kg ([4]; 30 mg/kg po, read-out: Percent Inh. Monkey #1): 18%
CC(C)c1cc(C=Cc2cccnc2)cc(C(C)C)c1O [Compound 1ab] | 73 | 34 | 
